Values quoted from earlier work, collected in patent US20220395547A1, “LIPOSOMAL FORMULATIONS FOR DELIVERY OF CANNABINOIDS AND METHODS OF MAKING THEREOF” (Vella Bioscience, Inc., priority 2019, published 2022).

Test system: microorganisms
Conditions: known from the art

CC(O)CO (stereo not shown) [propylene glycol]
Concentration at which antimicrobial activity is present: ≥ 20%
